Where “and” joins values, the source holds several entries; their conditions need not be identical. Equal entries are not always repeated.

The nature of data set [1]: In vivo pharmacokinetics in beagle dogs, p.o. The conditions noted are these: 10 mg/kg (equiv 2-PMPA), N=1, single dose. As to the method:
(by mouth). Blood samples were collected from the jugular vein (˜1 mL) via direct venipuncture, placed into potassium oxalate with sodium fluoride tubes, and maintained on wet ice until processed. Blood samples were centrifuged at a temperature of 4° C., at 3000×g, for 5 minutes. Blood samples were maintained chilled throughout processing. Plasma was collected in tubes and flash frozen. Samples were stored in a freezer set to maintain −60° C. to −80 OC until further analysis. […] The tissues were stored in −20° C. for 1 h and then homogenized. The calibration curve for the tissues was developed using naïve mouse brains from untreated animals as a matrix. For sciatic nerve, the nerves were weighed and homogenized in 50 μL methanol and the calibration curve was developed using naïve sciatic nerves from untreated animals as a matrix. The samples were vortexed and centrifuged. […] Supernatant was dried under a gentle stream of nitrogen at 45° C. and the residue reconstituted with 75 μL of acetonitrile and vortexed. 25 μL of derivatizing agent N-tert-Butyldimethysilyl-N-methyltrifluoro-acetamide (MTBSTFA) was added to microcentrifuge tubes, vortexed, and heated at ˜60 OC for 40 min. At the end of 40 min, the derivatized samples ˜75 μL were transferred to a 250 μL polypropylene vials and were analyzed via LC/MS/MS. […]

Data set [2] is described as follows: Metabolic stability in monkey plasma. In kind it is in vitro ADME. The conditions noted are these: 10 μM, 37° C. As for the experimental part:
(§1) For metabolic stability, plasma (mouse, dog, monkey and human) and liver microsomes (mouse, dog, monkey and human) were used. For stability, prodrugs (10 μM) were spiked in each matrix and incubated in an orbital shaker at 37° C. At predetermined times (0, 30 and 60 min), 100 μL aliquots of the mixture in triplicate were removed and the reaction quenched by addition of three times the volume of ice cold acetonitrile spiked with the internal standard (losartan 5 μM). The samples were vortexed for 30 s and centrifuged 12000 g for 10 min. 50 μL supernatant diluted with 50 μL water was transferred to a 250 μL polypropylene vial sealed with a Teflon cap. Prodrug disappearance was monitored over time using a liquid chromatography and tandem mass spectrometry (LC/MS/MS) method as described below.
(§2) For LC/MS/MS, prodrugs were separated with Thermo Scientific Accela UPLC system coupled to Accela open autosampler on an Agilent C18 (100×2.1 mm id) UPLC column. The autosampler was temperature controlled and operating at 10° C. The mobile phase used for the chromatographic separation was composed of acetonitrile/water containing 0.1% formic acid and was run at a flow rate of 0.5 mL/minute for 4.5 minutes using gradient elution. The column effluent was monitored using TSQ Vantage triple-quadrupole mass spectrometric detector, equipped with an electrospray probe set in the positive ionization mode. Samples were introduced into the ionization source through a heated nebulized probe (350° C.).
(§3) For quantification of compound remaining, disappearance of prodrugs was measured from ratio of peak areas of analyte to IS. Percentage remaining was calculated in the following manner: […]

Data set [3] in a line: Metabolic stability in human liver microsomes. Type of data set: in vitro ADME. The conditions noted are these: 10 μM, 37° C. Put shortly: (§4)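 Prodrugs at 10 μM were incubated in plasma or liver microsomes at 37° C, with triplicate samples taken at 0, 30 and 60 min and quenched in cold acetonitrile. Loss of prodrug was followed by LC/MS/MS in positive electrospray mode. Percent remaining came from the analyte-to-internal-standard peak-area ratio.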

Data set [4] in a line: Metabolic stability in monkey liver microsomes. The conditions noted are these: 10 μM, 37° C. Type of data set: in vitro ADME. As for the experimental part:
as §1, §2, §3

A short description of data set [5]: Metabolic stability in dog plasma. The conditions noted are these: 10 μM, 37° C. Type of data set: in vitro ADME. As for the experimental part:
as §1, §2, §3

Data set [6] in a line: In vitro metabolic stability screen in plasma and liver subcellular fractions (results in words). Type of data set: in vitro ADME. The conditions noted are these: 60 min incubation. As for the experimental part:
as §1, §2
For quantification of compound remaining, disappearance of prodrugs was measured from ratio of peak areas of analyte to IS. Percentage remaining was calculated in the following manner:
In general, the prodrugs were screened by an in vitro metabolic stability screen, and if positive, followed by an in vivo single time point pharmacokinetic study, and in select cases, an in vivo full time course pharmacokinetic study (FIG. 3). In this Example, the four acidic functional groups in 2-PMPA were systematically capped. The carboxylic acids were first masked with simple alkyl esters (Compounds 1, 2, and 3). In vitro chemical and metabolic stability of the prodrugs then were conducted, following 60 min incubation in plasma stability screens for prodrugs.

Data set [7] can be described thus: Metabolic stability in human plasma. In kind it is in vitro ADME. The conditions noted are these: 10 μM, 37° C. The essentials: as §4
A short description of data set [8]: Metabolic stability in dog liver microsomes. In kind it is in vitro ADME. The conditions noted are these: 10 μM, 37° C. As to the method: as §1, §2, §3

`CC(C)OC(=O)OCOC(=O)C(CCC(=O)O)CP(=O)(OCOC(=O)OC(C)C)OCOC(=O)OC(C)C` (centres unmarked) [Compound 10]: in data set [1], the “Cmax” value is listed as “high Cmax”. For the same compound, the Percentage remaining is 100% in data set [2] (0 min); 50% in data set [2] (30 min); 11% in data set [2] (60 min); 100% in data set [3] (0 min); 5% and 3% in data set [3] (30 min, listed as TRIS-POC); 0% in data set [3] (60 min). The Percentage remaining in data set [4] (0 min) is 100%; in data set [4] (30 min), 0%; in data set [4] (60 min), 0%; in data set [5] (0 min) it was 100%; in data set [5] (30 min), 67%; in data set [5] (60 min), 28%. Also, the Percentage remaining in data set [7] (0 min) was 100%; in data set [7] (30 min, listed as TRIS-POC), 102% and 64%; in data set [7] (60 min, listed as TRIS-POC), 77% and 48%; in data set [8] (0 min), 100%; in data set [8] (30 min) it was 1%; in data set [8] (60 min), 0%. Besides, the “in vitro metabolic stability” value in data set [6] was “instability in plasma and liver subcellular fractions”.

(Values after patent US9988407B2, “Prodrugs of prostate specific membrane antigen (PSMA) inhibitor” (THE JOHNS HOPKINS UNIVERSITY, priority 2014, dated 2018).)
